Reference: patent US6998233B2, “Methods for ligand discovery” (Sunesis Pharmaceuticals, Inc., priority 1998, dated 2006)
Like-named read-outs stand apart in the source and are kept apart here. One block for each compound: values may come before it.

Legend:
[1] = target: T1, target-extender complex 14′ (caspase-3 modified with extender 14) (Homo sapiens, UniProt P42574); assay: Tethering with extender, target-extender complex 14′; format: binding; conditions: library of about 10,000 ligand candidates
T1 construct: made in house
T1 sequence (P42574 29-175): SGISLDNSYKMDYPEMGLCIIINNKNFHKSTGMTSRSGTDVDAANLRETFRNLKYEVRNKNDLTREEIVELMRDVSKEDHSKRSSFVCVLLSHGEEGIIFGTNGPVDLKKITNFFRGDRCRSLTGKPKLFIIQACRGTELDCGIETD
T1 sequence (P42574 176-277): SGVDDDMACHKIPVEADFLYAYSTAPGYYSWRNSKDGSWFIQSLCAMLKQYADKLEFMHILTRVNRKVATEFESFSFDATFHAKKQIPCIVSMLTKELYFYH
Source text: (§1) Target-extender complexes 13′ and 14′ were each used in the tethering method against a library of about 10,000 ligand candidates. An illustrative example of a selected ligand-candidate using target-extender complex 13′ is [drawing 39]

[2] = target: T2, target-extender complex 13′ (caspase-3 modified with extender 13) (Homo sapiens, UniProt P42574); assay: Tethering with extender, target-extender complex 13′; format: binding; conditions: library of about 10,000 ligand candidates
T2 construct: made in house
T2 sequence (P42574 29-175): T1 sequence (P42574 29-175)
T2 sequence (P42574 176-277): T1 sequence (P42574 176-277)
Source text: as §1
(§2) This example describes the modification of caspase-3 with extender 13. Caspase-3 was cloned, overexpressed, and purified using standard techniques. […] The protein was concentrated in a Ultrafree 5 MWCO unit and the buffer exchanged to 0.1 M TES pH 7.5 using a Nap-5 column.

[3] = format: physicochemical
Procedure: The thiirane (17 mg, 0.047 mmol) was dissolved in dry DCM (5 ml), chilled in an ice-water bath, and treated with 5 ml trifluoroacetic acid. The reaction was allowed to proceed on ice for 40 minutes at which point it was evaporated to dryness and purified using reverse phase HPLC to yield compound 40 as a white solid (1.8 mg, 0.0058 mmol, 13%, ES (+) MS m/z=332 (M+Na)). […] It is generally preferred that the conjugation reaction of this extender to the active site thiol of caspases is performed for only 2–5 minutes at pH 6 and at low stoichiometries with respect to enzyme (1–3 equivalents)

caspase-3 [4] = target: T3, caspase-3 (Homo sapiens, UniProt P42574); assay: Modification of caspase-3 with extender (mass-spectroscopy); format: binding; conditions: ambient temperature, 3.5 hours
T3 sequence (P42574 29-175 limits assumed): T1 sequence (P42574 29-175)
T3 sequence (P42574 176-277 limits assumed): T1 sequence (P42574 176-277)
Source text: as §2

E. coli TS = E. coli TS (Escherichia coli, UniProt P0A884); assay: Thymidylate synthase inhibition, enzymatic assay (Michaelis-Menten kinetics) on tether-free analogs; format: biochemical
E. coli TS, sequence (P0A884 whole entry): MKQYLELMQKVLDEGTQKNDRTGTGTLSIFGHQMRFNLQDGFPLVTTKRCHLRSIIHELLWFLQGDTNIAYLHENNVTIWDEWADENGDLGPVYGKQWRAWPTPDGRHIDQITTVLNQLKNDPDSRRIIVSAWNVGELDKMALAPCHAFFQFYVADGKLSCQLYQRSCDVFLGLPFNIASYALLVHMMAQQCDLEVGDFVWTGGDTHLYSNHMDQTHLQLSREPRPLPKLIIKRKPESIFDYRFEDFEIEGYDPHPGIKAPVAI
Source text: TS is an ideal validating target for several reasons. […] Second, a simple colorimetric assay exists for determining whether a potential ligand binds to TS. This assay depends on the rate of conversion of 5,10-CH2—H4folate to H2folate in the presence of dUMP. A second assay for binding is also spectrophotometric and relies on competition with pyridoxal-5′-phosphate (“PLP”), which forms a complex with TS with a unique spectral signature.
The TS chosen for the purposes of illustration is the E. coli TS. […] The E. coli TS includes four other cysteines but these are not conserved among other TS enzymes and are buried and thus not accessible. However, if one or more of these cysteines were reactive toward disulfides, then mutant versions of these enzymes can be used where these cysteines are mutated to another amino acid such as alanine.
In one illustrative example, the tethering experiment is performed in the presence of a known substrate. […] In contrast, a ligand candidate that lacks an inherent binding affinity or cysteamine would be easily displaced by the substrate. Another illustrative example is traditional enzymatic assays on the tether-free analog. For example, the affinity of the [drawing 14] R^c portion of the ligand fragment was determined using Michaelis-Mention kinetics.
The inhibition constants of the untethered versions of the selected ligand candidates were determined.

caspase-3 [5] = target: T3, caspase-3; assay: Caspase-3 inhibition (Ki); format: biochemical; conditions: for change of binding affinity relative to compound 18: removal of hydroxyl group / hydroxyl and acid moiety
[6] = untethered versions of selected ligand candidates, Example 6
[7] = Table 2, glutamate-grafted N-tosyl-proline derivatives

- selection in tethering [1]: selected
- selection in tethering [2]: not selected
SMILES: CS(=O)(=O)c1ccc(C(=O)NCCSSCCN)s1 [ligand candidate 16]

SMILES: O=C(O)C[C@H](NC(=O)OCc1ccccc1)C(=O)C1CS1 (stereo partly shown) [compound 40]
- stability as solution in methanol [3]: stable for months
- stability in DMSO [3]: not stable

- modification of caspase 3 large subunit (caspase-3 [4]): complete modification
SMILES: CC(=O)SCC(=O)N[C@@H](CC(=O)O)C(=O)COC(=O)c1c(Cl)cccc1Cl [compound 13, 2,6-Dichloro-benzoic acid 3-(2-acetylsulfanyl-acetylamino)-4-carboxy-2-oxo-butyl ester]

SMILES: O=C(O)COc1ccc(/C=N/OCCCO/N=C/c2ccc(S(=O)(=O)N3CCCC3C(=O)O)cc2)cc1 (stereo not shown) [compound 2]
- Ki (E. coli TS; [6]): ~55 µM

- selection in tethering [1]: not selected
- selection in tethering [2]: not selected
SMILES: NCCSSCCNS(=O)(=O)c1cccc(C(=O)O)c1 [ligand candidate 17]

- Ki (caspase-3 [5]): 0.051 µM
SMILES: CC(=O)N[C@@H](CCC(=O)O)C(=O)N[C@H](C(=O)N[C@H](C=O)CC(=O)O)C(C)C [compound I, reference compound]

SMILES: O=C(O)COc1ccc(/C=N\OCCCCCCO/N=C/c2ccc(S(=O)(=O)N3CCCC3C(=O)O)cc2)cc1 (stereo not shown) [compound 3]
- Ki (E. coli TS; [6]): ~40 µM

- Ki (caspase-3 [5]): 0.33 µM
SMILES: CS(=O)(=O)c1ccc(C(=O)NCCCS(=O)(=O)Cc2cccc(S(=O)(=O)N[C@H](C=O)CC(=O)O)c2)s1 [compound 22]

SMILES: Cc1ccc(S(=O)(=O)N2CCC[C@@H]2C(=O)O)cc1 [compound 1, N-tosyl-D-proline]
- mode of inhibition (E. coli TS; competed with the natural substrate dUMP): weak but competitive inhibitor
- Ki (E. coli TS; free acid, Michaelis-Menten kinetics): 1100 ± 250 µM

SMILES: O=C(O)CCC[C@H](NC(=O)c1ccc(S(=O)(=O)N2CCCC2C(=O)O)cc1)C(=O)O (stereo partly shown) [compound 7]
- Ki (E. coli TS; [7]): 23 ± 6 µM

SMILES: NC(=O)CC[C@H](NC(=O)c1ccc(S(=O)(=O)N2CCCC2C(=O)O)cc1)C(=O)O (stereo partly shown) [compound 11]
- Ki (E. coli TS; [7]): 61 ± 14 µM

- Ki (caspase-3 [5]; Table 4): > 100 µM
- change of binding affinity relative to compound 18 (caspase-3 [5]): ablated binding affinity entirely
SMILES: O=C[C@H](CC(=O)O)NC(=O)CCCCCNS(=O)(=O)c1ccccc1 [compound 20]

SMILES: O=C(O)CCCC[C@H](NC(=O)c1ccc(S(=O)(=O)N2CCCC2C(=O)O)cc1)C(=O)O (stereo partly shown) [compound 8]
- Ki (E. coli TS; [7]): 32 ± 2 µM

SMILES: O=C(O)CCCCC[C@H](NC(=O)c1ccc(S(=O)(=O)N2CCCC2C(=O)O)cc1)C(=O)O (stereo partly shown) [compound 9]
- Ki (E. coli TS; [7]): 14 ± 6 µM

- Ki (caspase-3 [5]; Table 4): 15.3 µM
- change of binding affinity relative to compound 18 (caspase-3 [5]): reduced the affinity by a factor of five
SMILES: O=C[C@H](CC(=O)O)NC(=O)CCCCCNS(=O)(=O)c1cccc(C(=O)O)c1 [compound 19]

- selection in tethering [1]: not selected
- selection in tethering [2]: selected
SMILES: NCCSSCCNS(=O)(=O)c1ccc(O)c(C(=O)O)c1 [ligand candidate 15]

SMILES: O=C(O)C[C@H](NC(=O)c1ccc(S(=O)(=O)N2CCCC2C(=O)O)cc1)C(=O)O (stereo partly shown) [compound 6]
- Ki (E. coli TS; [7]): 242 ± 3 µM

- decrease in binding affinity versus compound I (caspase-3 [5]; addition of salicylate sulfonamide moiety to compound I): ~300 fold
SMILES: CC(C)[C@H](NC(=O)[C@H](CCC(=O)O)NS(=O)(=O)c1ccc(O)c(C(=O)O)c1)C(=O)N[C@H](C=O)CC(=O)O [compound II]

SMILES: O=C(O)CCCNC(=O)c1ccc(S(=O)(=O)N2CCCC2C(=O)O)cc1 (stereo not shown) [compound 12]
- Ki (E. coli TS; [7]): 246 ± 46 µM

SMILES: NC(=O)[C@H](CCC(=O)O)NC(=O)c1ccc(S(=O)(=O)N2CCCC2C(=O)O)cc1 (stereo partly shown) [compound 10]
- Ki (E. coli TS; [7]): 378 ± 69 µM

- Ki (caspase-3 [5]): ~0.16 µM
- Ki better than compound 18 (caspase-3 [5]): more than 10 fold
- Ki (caspase-3 [5]; Table 4): 0.16 µM
- improvement of binding by addition of the salicylate sulfonamide (caspase-3 [5]; versus salicylate sulfonamide-less fragment): about 200 fold
SMILES: O=C[C@H](CC(=O)O)NC(=O)c1ccc(CNS(=O)(=O)c2ccc(O)c(C(=O)O)c2)cc1 [compound 21]
